Data reported in US10227323B2, “Glucosylceramide synthase inhibitors for the treatment of diseases” (BIOMARIN PHARMACEUTICAL INC., priority 2013, dated 2019).

biological target: T1, GCS (Canis lupus familiaris, UniProt A0A8I3MXG6); assay: Assay 1: GCS Enzymatic Assay (MDCK cell lysate, C6-NBD-Ceramide, LC/MS); assay type: biochemical, canine; settings: Table 1; MDCK cell lysate; read-out: IC50 (nM) generated from Assay 1
T1 sequence (A0A8I3MXG6 1-394): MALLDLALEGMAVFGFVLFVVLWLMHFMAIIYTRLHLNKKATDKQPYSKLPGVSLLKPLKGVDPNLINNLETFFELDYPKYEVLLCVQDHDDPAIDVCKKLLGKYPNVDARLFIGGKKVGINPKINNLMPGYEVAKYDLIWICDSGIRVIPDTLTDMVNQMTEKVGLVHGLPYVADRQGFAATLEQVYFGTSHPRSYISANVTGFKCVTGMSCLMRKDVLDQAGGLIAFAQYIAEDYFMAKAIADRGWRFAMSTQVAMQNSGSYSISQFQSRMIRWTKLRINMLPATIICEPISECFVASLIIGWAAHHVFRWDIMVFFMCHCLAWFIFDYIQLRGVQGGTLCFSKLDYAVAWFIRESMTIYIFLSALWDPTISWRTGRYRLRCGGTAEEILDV
Description: This assay was modified based on the study by Larsen et al. (J. Lipid Res. 2011, 53, 282). Madin-Darby canine kidney (MDCK) cell lysate was prepared using M-PER Mammalian Protein Extraction Reagent (Thermal Scientific) in the presence of a protease inhibitor cocktail (Roche). Protein concentration was determined using BCA assay kit (Pierce). Sixty micrograms of MDCK cell lysate was incubated with various concentrations of a compound described herein from 0.001 μM-10 μM, respectively, in 100 mM Tris buffer (pH 7.5) containing 10 mM MgCl2, 1 mM dithiothreitol, 1 mM EGTA, 2 mM NAD, 100 μM UDP-glucose, 10 μM C6-NBD-Ceramide (Matreya LLC, Pleasant Gap, Pa.), 35 μM dioleoylphosphatidylcholine and 5 μM sulfatide (Sigma) in a final reaction volume of 100 μL at 37° C. for 1 hour. 0.1% DMSO was used as mock treatment or control. The reaction was terminated by adding 100 μL acetonitrile solution and subjected to LC/MS analysis.
The quantitative analysis of NBD-Ceramide and glucosylceramide was performed on a Shimadzu ultra-fast liquid chromatography (Shimadzu, Japan) coupled with API 4000 triple quadrupole mass spectrometer (Applied Biosystems, Concord, Ontario, Canada). Sample separation was conducted on a Waters Xbridge™ BEH130 C18, 100 mm×4.6 mm i.d, 3.5 μm (Milford, Mass., USA). The mobile phase consisted of water and acetonitrile supplemented with 0.1% formic acid (v/v). The flow rate was 1.0 mL/min. The initial mobile phase was 20% acetonitrile and was ramped in a linear fashion to 50% acetonitrile in 0.4 min. From 0.4 to 1.5 min, the gradient was ramped to 98% acetonitrile, and then was held at […] until 8.0 min. Acetonitrile was reset to 20% in 1.5 min, and maintained until 10.0 min. The total run time was 10.0 min. The MS/MS detection was performed in ESI positive mode. The mass transition of NBD-Ceramide was m/z 576.36→558.40 under the collision energy of 15 V, and the mass transition of glucosylceramide was m/z 738.35→558.40 under 21V collision energy. The cell lysate was diluted with equal volume of acetonitrile. Aliquots of 50 μL diluted samples were added to 1.5 mL tubes, and 100 μL of acetonitrile containing internal standard (100 ng/mL tolbutamide) were added for protein precipitation. The mixture were vortexed and then centrifuged at 13000 rpm for 10 min. 70 μL of supernatant were mixed with 140 μL of H2O and the final solution were injected for LC/MS/MS analysis and IC50's and/or percent inhibitions calculated.

| IC50 [nM] | Compound |
| --- | --- |
| < 50 | O=C(N[C@H](CN1CCCC1)[C@H](O)c1ccc(OC2CCOC2)c(Cl)c1)C(F)(F)c1cc2cc(Cl)ccc2o1 (single isomer, unassigned) [Compound 47] |
| < 50 | O=C(N[C@H](CN1CCCC1)[C@H](O)c1ccc2c(c1)OCCO2)C(F)(F)C1Cc2ccccc2C1 [Compound 1, 2-(2,3-dihydro-1H-inden-2-yl)-N-((1R,2R)-1-(2,3-dihydrobenzo[b][1,4]dioxin-6-yl)-1-hydroxy-3-(pyrrolidin-1-yl)propan-2-yl)-2,2-difluoroacetamide] |
| 50 to 5000 | O=C(N[C@H](CN1CCCC1)[C@H](O)c1ccc2c(c1)OCCO2)C(F)(F)c1ccc2c(c1)OCCO2 [Compound 2, 2-(2,3-dihydrobenzo[b][1,4]dioxin-6-yl)-N-((1R,2R)-1-(2,3-dihydrobenzo[b][1,4]dioxin-6-yl)-1-hydroxy-3-(pyrrolidin-1-yl)propan-2-yl)-2,2-difluoroacetamide] |
| < 50 | O=C(N[C@H](CN1CCCC1)[C@H](O)c1ccc2c(c1)OCCO2)C(F)(F)c1cc2cc(Cl)ccc2s1 [Compound 3, 2-(5-chlorobenzo[b]thiophen-2-yl)-N-((1R,2R)-1-(2,3-dihydrobenzo[b][1,4]dioxin-6-yl)-1-hydroxy-3-(pyrrolidin-1-yl)propan-2-yl)-2,2-difluoroacetamide] |
| < 50 | COc1ccc([C@H](O)[C@@H](CN2CCCC2)NC(=O)C(F)(F)C2Cc3ccccc3C2)cc1F [Compound 5, 2-(2,3-dihydro-1H-inden-2-yl)-2,2-difluoro-N-((1S,2R)-1-(3-fluoro-4-methoxyphenyl)-1-hydroxy-3-(pyrrolidin-1-yl)propan-2-yl)acetamide] |
| 50 to 5000 | COc1ccc(C(O)[C@@H](CN2CCCC2)NC(=O)C(F)(F)C2Cc3ccccc3C2)cc1F (stereo partly drawn) [Compound 5A, 2-(2,3-dihydro-1H-inden-2-yl)-2,2-difluoro-N-((2R)-1-(3-fluoro-4-methoxyphenyl)-1-hydroxy-3-(pyrrolidin-1-yl)propan-2-yl)acetamide] |
| < 50 | O=C(N[C@H](CN1CCCC1)[C@H](O)c1ccc2c(c1)OCCO2)C(F)(F)C1Cc2cc(Cl)c(Cl)cc2C1 [Compound 7, 2-(5,6-dichloro-2,3-dihydro-1H-inden-2-yl)-N-((1R,2R)-1-(2,3-dihydrobenzo[b][1,4]dioxin-6-yl)-1-hydroxy-3-(pyrrolidin-1-yl)propan-2-yl)-2,2-difluoroacetamide] |
| < 50 | O=C(N[C@H](CN1CCCC1)[C@H](O)c1ccc2c(c1)OCCO2)C(F)(F)c1cc2cc(Cl)ccc2o1 [Compound 11, 2-(5-chlorobenzofuran-2-yl)-N-((1R,2R)-1-(2,3-dihydrobenzo[b][1,4]dioxin-6-yl)-1-hydroxy-3-(pyrrolidin-1-yl)propan-2-yl)-2,2-difluoroacetamide] |

same assay, conditions: Table 1; values marked *; MDCK cell lysate

| Compound | % inhibition generated from Assay 1 |
| --- | --- |
| COc1ccc(C(O)[C@@H](CN2CCCC2)NC(=O)C(F)(F)c2cc3cc(Cl)ccc3s2)cc1F (stereo partly drawn) [Compound 4, 2-(5-chlorobenzo[b]thiophen-2-yl)-2,2-difluoro-N-((2R)-1-(3-fluoro-4-methoxyphenyl)-1-hydroxy-3-(pyrrolidin-1-yl)propan-2-yl)acetamide] | B* (the compound had a % inhibition of greater than or equal to about 3% but less than about 50%) |
| COc1ccc([C@@H](O)[C@@H](CN2CCCC2)NC(=O)C(F)(F)C2Cc3ccccc3C2)cc1F [Compound 5B, 2-(2,3-dihydro-1H-inden-2-yl)-2,2-difluoro-N-((1R,2R)-1-(3-fluoro-4-methoxyphenyl)-1-hydroxy-3-(pyrrolidin-1-yl)propan-2-yl)acetamide] | B* (the compound had a % inhibition of greater than or equal to about 3% but less than about 50%) |
| O=C(N[C@H](CN1CCCC1)[C@H](O)c1ccc2c(c1)OCCO2)C(F)(F)c1nc2cc(Cl)ccc2s1 [Compound 6, 2-(5-chlorobenzo[d]thiazol-2-yl)-N-((1R,2R)-1-(2,3-dihydrobenzo[b][1,4]dioxin-6-yl)-1-hydroxy-3-(pyrrolidin-1-yl)propan-2-yl)-2,2-difluoroacetamide] | B* (the compound had a % inhibition of greater than or equal to about 3% but less than about 50%) |
| COc1ccc(F)c([C@@H](O)[C@@H](CN2CCCC2)NC(=O)C(F)(F)C2Cc3ccccc3C2)c1 [Compound 8, 2-(2,3-dihydro-1H-inden-2-yl)-2,2-difluoro-N-((1R,2R)-1-(2-fluoro-5-methoxyphenyl)-1-hydroxy-3-(pyrrolidin-1-yl)propan-2-yl)acetamide] | B* (the compound had a % inhibition of greater than or equal to about 3% but less than about 50%) |
| COc1ccc(F)c([C@H](O)[C@@H](CN2CCCC2)NC(=O)C(F)(F)C2Cc3ccccc3C2)c1 [Compound 8J, 2-(2,3-dihydro-1H-inden-2-yl)-2,2-difluoro-N-((1S,2R)-1-(2-fluoro-5-methoxyphenyl)-1-hydroxy-3-(pyrrolidin-1-yl)propan-2-yl)acetamide] | B* (the compound had a % inhibition of greater than or equal to about 3% but less than about 50%) |
| Cn1c(C(F)(F)C(=O)N[C@H](CN2CCCC2)[C@H](O)c2ccc3c(c2)OCCO3)nc2cc(Cl)ccc21 [Compound 10, 2-(5-chloro-1-methyl-1H-benzo[d]imidazol-2-yl)-N-((1R,2R)-1-(2,3-dihydrobenzo[b][1,4]dioxin-6-yl)-1-hydroxy-3-(pyrrolidin-1-yl)propan-2-yl)-2,2-difluoroacetamide] | B* (the compound had a % inhibition of greater than or equal to about 3% but less than about 50%) |

same assay, conditions: Table 2; data marked by *

| Compound | % inhibition generated from Assay 1 |
| --- | --- |
| CC(C)Oc1cc(C(O)[C@@H](CN2CCCC2)NC(=O)C(F)(F)c2cc3cc(Cl)ccc3o2)ccn1 (stereo in doubt) [Compound 103, 2-(5-chlorobenzofuran-2-yl)-2,2-difluoro-N-((1S,2R)-1-hydroxy-1-(2-isopropoxypyridin-4-yl)-3-(pyrrolidin-1-yl)propan-2-yl)acetamide] | B* (the compound had a % inhibition of greater than or equal to about 3% but less than about 50%) |
| O=C(N[C@H](CN1CCC1)C(O)c1cc(F)c2c(c1)OCCO2)C(F)(F)CCc1ccc2ccccc2c1 (stereo in doubt) [Compound 113, N-((1S,2R)-3-(azetidin-1-yl)-1-(8-fluoro-2,3-dihydrobenzo[b][1,4]dioxin-6-yl)-1-hydroxypropan-2-yl)-2,2-difluoro-4-(naphthalen-2-yl)butanamide] | B* (the compound had a % inhibition of greater than or equal to about 3% but less than about 50%) |
| CC1(C)CCc2cc(C(O)[C@@H](CN3CCCC3)NC(=O)C(F)(F)CCc3ccc4ccccc4c3)ccc2O1 (stereo in doubt) [Compound 117, N-((1S,2R)-1-(2,2-dimethylchroman-6-yl)-1-hydroxy-3-(pyrrolidin-1-yl)propan-2-yl)-2,2-difluoro-4-(naphthalen-2-yl)butanamide] | B* (the compound had a % inhibition of greater than or equal to about 3% but less than about 50%) |
| O=C(N[C@H](CN1CCCC1)C(O)c1ccc(N2CCOCC2)c(Cl)c1)C(F)(F)CCc1ccc2ccccc2c1 (stereo in doubt) [Compound 124, N-((1S,2R)-1-(3-chloro-4-morpholinophenyl)-1-hydroxy-3-(pyrrolidin-1-yl)propan-2-yl)-2,2-difluoro-4-(naphthalen-2-yl)butanamide] | B* (the compound had a % inhibition of greater than or equal to about 3% but less than about 50%) |

same assay, conditions: Table 2; data without asterisk; read-out: IC50 (nM) generated from Assay 1

| IC50 [nM] | Compound |
| --- | --- |
| 50 to 5000 | CC(C)Oc1ccc(C(O)[C@@H](CN2CCCC2)NC(=O)C(F)(F)c2cc3cc(Cl)ccc3o2)cn1 (stereo in doubt) [Compound 80, 2-(5-chlorobenzofuran-2-yl)-2,2-difluoro-N-((1S,2R)-1-hydroxy-1-(6-isopropoxypyridin-3-yl)-3-(pyrrolidin-1-yl)propan-2-yl)acetamide] |
